The values that follow come from patent publication US10758534B2 (Vertex Pharmaceuticals Incorporated, priority 2014, dated 2020).

The experiment has as its target T1, F508del (Homo sapiens, UniProt P13569, DEL508-508).
T1 construct: expressed in transfected cells
Put plainly: Protocol 2: FRET membrane potential optical assay (VIPR), identification of correction compounds. Type of experiment: cell-based. Put shortly:
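FRET read-out (CC2-DMPE donor, DiSBAC2(3) voltage-sensitive acceptor) of membrane depolarization on VIPR II. Corrector candidates incubated 16 hrs at 37° C. with NIH3T3 cells expressing F508del; temperature correction at 27° C. as positive control; stimulation by 10 μM forskolin, 20 μM genistein, chloride-free gluconate bath.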

Where [1] appears, read: Table 3, compounds of Table 1 as modulators of CFTR activity, protocol not stated.
The mark [2] stands for this setting: F508del CFTR modulator activity, compounds of Table 1, read-out: EC30.

Like-named read-outs stand apart in the source and are kept apart here.

T1 sequence (P13569 with tags, fused parts or gaps DEL508-508): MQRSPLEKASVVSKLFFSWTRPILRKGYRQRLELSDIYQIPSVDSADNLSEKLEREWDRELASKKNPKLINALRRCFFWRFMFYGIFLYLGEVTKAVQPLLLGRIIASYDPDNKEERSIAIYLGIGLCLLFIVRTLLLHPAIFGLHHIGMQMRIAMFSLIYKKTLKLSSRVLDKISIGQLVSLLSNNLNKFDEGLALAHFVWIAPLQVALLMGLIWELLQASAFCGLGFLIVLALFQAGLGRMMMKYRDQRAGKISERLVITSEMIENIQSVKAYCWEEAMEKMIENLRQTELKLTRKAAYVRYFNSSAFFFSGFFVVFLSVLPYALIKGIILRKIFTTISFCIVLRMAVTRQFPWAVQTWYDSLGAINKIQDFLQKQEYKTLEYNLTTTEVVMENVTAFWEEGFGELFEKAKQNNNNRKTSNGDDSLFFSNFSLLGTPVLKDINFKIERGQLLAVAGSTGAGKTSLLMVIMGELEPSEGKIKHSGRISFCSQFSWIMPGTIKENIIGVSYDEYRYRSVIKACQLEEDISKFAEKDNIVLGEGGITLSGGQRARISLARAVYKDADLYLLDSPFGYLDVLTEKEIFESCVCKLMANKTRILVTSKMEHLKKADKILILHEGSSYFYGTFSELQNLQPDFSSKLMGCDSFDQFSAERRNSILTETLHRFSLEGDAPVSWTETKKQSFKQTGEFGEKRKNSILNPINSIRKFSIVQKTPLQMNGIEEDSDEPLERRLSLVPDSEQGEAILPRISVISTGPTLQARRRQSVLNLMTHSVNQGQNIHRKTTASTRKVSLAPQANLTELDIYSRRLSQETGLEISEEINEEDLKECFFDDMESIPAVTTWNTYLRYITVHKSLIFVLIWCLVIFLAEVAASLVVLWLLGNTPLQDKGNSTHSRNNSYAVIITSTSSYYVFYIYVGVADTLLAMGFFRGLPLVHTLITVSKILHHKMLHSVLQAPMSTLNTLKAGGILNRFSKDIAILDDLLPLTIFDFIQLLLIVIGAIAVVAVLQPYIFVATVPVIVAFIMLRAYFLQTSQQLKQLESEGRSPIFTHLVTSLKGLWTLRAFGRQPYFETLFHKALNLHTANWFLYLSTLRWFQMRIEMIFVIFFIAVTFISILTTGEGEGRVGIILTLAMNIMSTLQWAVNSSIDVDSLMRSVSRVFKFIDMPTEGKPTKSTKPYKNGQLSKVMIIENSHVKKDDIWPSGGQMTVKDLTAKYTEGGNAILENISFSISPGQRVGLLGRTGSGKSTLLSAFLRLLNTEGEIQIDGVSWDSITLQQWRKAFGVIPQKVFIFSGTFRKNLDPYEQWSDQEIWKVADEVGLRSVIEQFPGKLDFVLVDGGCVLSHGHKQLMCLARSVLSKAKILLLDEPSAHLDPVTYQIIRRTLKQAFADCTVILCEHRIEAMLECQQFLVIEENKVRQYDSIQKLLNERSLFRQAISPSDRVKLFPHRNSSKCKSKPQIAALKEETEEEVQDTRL

For `COc1c(C)cccc1-c1ccc(C(=O)NS(=O)(=O)c2cccc(N)n2)c(Oc2c(C)cc(C)cc2C)n1` [Compound 477, N-[(6-amino-2-pyridyl)sulfonyl]-6-(2-methoxy-3-methyl-phenyl)-2-(2,4,6-trimethylphenoxy)pyridine-3-carboxamide], the EC30 result under setting [1] is “+++ (“+++” means <3 uM)”.

As to `C[C@@H]1CN(c2nc(-c3ccccc3O)ccc2C(=O)NS(=O)(=O)c2cccnc2N)C(C)(C)C1` [Compound 2257, N-[(2-amino-3-pyridyl)sulfonyl]-6-(2-hydroxyphenyl)-2-[(4S)-2,2,4-trimethylpyrrolidin-1-yl]pyridine-3-carboxamide], the EC30 under setting [2] is below 3 µM.

As to `CC1CN(c2ncccc2C(=O)NS(=O)(=O)c2cccc(Oc3cccc(C(C)C)c3)n2)C(C)(C)C1` (stereo not drawn) [Compound 2108, N—[[6-(3-isopropylphenoxy)-2-pyridyl]sulfonyl]-2-(2,2,4-trimethylpyrrolidin-1-yl)pyridine-3-carboxamide], the EC30 under setting [2] is below 3 µM.

For the compound `CC(C)COc1cccc(-c2ccc(C(=O)NS(=O)(=O)c3cccc(N)n3)c(N3[C@H](C)CC[C@@H]3C)n2)n1` [Compound 432, N-[(6-amino-2-pyridyl)sulfonyl]-2-[(2S,5R)-2,5-dimethylpyrrolidin-1-yl]-6-(6-isobutoxy-2-pyridyl)pyridine-3-carboxamide], the EC30 result under setting [1] is reported as “+++ (“+++” means <3 uM)”.

As to `CC1CN(c2ncccc2C(=O)NS(=O)(=O)c2cccc(N(C)C(C)C)n2)C(C)(C)C1` (single isomer, unassigned) [Compound 2724], the EC30 under setting [2] is below 3 µM.

As to `C[C@@H]1CN(c2nc(C3CCCOC3)ccc2C(=O)NS(=O)(=O)c2cccnc2N)C(C)(C)C1` (stereo partly drawn) [Compound 2311, N-[(2-amino-3-pyridyl)sulfonyl]-6-tetrahydropyran-3-yl-2-[(4S)-2,2,4-trimethylpyrrolidin-1-yl]pyridine-3-carboxamide], under setting [2], the EC30 is below 3 µM.

As for `CC1CN(c2ncccc2C(=O)NS(=O)(=O)c2cccc(OCc3ccccc3)n2)C(C)(C)C1` (stereo not drawn) [Compound 2619, N-[(6-benzyloxy-2-pyridyl)sulfonyl]-2-(2,2,4-trimethylpyrrolidin-1-yl)pyridine-3-carboxamide], the EC30 under setting [2] was below 3 µM.

As to `C[C@@H]1CN(c2nc(-c3ccc(OC(F)(F)F)cc3)ccc2C(=O)NS(=O)(=O)c2cccnc2N)C(C)(C)C1` [Compound 2223, N-[(2-amino-3-pyridyl)sulfonyl]-6-[4-(trifluoromethoxy)phenyl]-2-[(4S)-2,2,4-trimethylpyrrolidin-1-yl]pyridine-3-carboxamide], under setting [2], the 30% effect concentration (EC30) is below 3 µM.

On to `COc1ccccc1Oc1cccc(S(=O)(=O)NC(=O)c2cccnc2N2CC(C)CC2(C)C)n1` (stereo not drawn) [Compound 2637, N—[[6-(2-methoxyphenoxy)-2-pyridyl]sulfonyl]-2-(2,2,4-trimethylpyrrolidin-1-yl)pyridine-3-carboxamide], for which, under setting [2], the 30% effect concentration (EC30) was below 3 µM.

For the compound `COc1ccc(F)c(-c2ccc(C(=O)NS(=O)(=O)c3ccc[nH]c3=O)c(Oc3c(C)cc(C)cc3C)n2)c1` [Compound 762, 6-(2-fluoro-5-methoxy-phenyl)-N-[(2-oxo-1H-pyridin-3-yl)sulfonyl]-2-(2,4,6-trimethylphenoxy)pyridine-3-carboxamide], under setting [1], the EC30 entry is “++ (“++” means between 3 uM and 10 uM)”.

Turning to `Cc1cc(C)c(Oc2nc(-c3ccc(Cl)c(OCC(C)C)c3)ccc2C(=O)NS(=O)(=O)c2cccc(N)n2)c(C)c1` [Compound 238, N-[(6-amino-2-pyridyl)sulfonyl]-6-(4-chloro-3-isobutoxy-phenyl)-2-(2,4,6-trimethylphenoxy)pyridine-3-carboxamide], the EC30 result under setting [1] is “+++ (“+++” means <3 uM)”.

In the case of `CCOc1cc(C)cc(-c2ccc(C(=O)NS(=O)(=O)c3cc[nH]n3)c(Oc3c(C)cc(C)cc3C)n2)n1` [Compound 2301, 6-(6-ethoxy-4-methyl-2-pyridyl)-N-(1H-pyrazol-3-ylsulfonyl)-2-(2,4,6-trimethylphenoxy)pyridine-3-carboxamide], the EC30 under setting [2] was below 3 µM.

With `Cc1cc(C)c(Cn2c(C(=O)NS(=O)(=O)c3ccccc3)cc3ccc(C)cc32)c(C)c1` [Compound 12, N-(benzenesulfonyl)-6-methyl-1-[(2,4,6-trimethylphenyl)methyl]indole-2-carboxamide], under setting [1], the EC30 result was “+++ (“+++” means <3 uM)”.

As for `COc1ccc(Nc2cccc(S(=O)(=O)NC(=O)c3cccnc3N3CC(C)CC3(C)C)n2)cc1OC` (stereo not drawn) [Compound 2041, N—[[6-(3,4-dimethoxyanilino)-2-pyridyl]sulfonyl]-2-(2,2,4-trimethylpyrrolidin-1-yl)pyridine-3-carboxamide], the EC30 under setting [2] was below 3 µM.

`CC1CN(c2ncccc2C(=O)NS(=O)(=O)c2cccc(OCc3ccc(Cl)c(Cl)c3)n2)C(C)(C)C1` (stereo not drawn) [Compound 2402, N—[[6-[(3,4-dichlorophenyl)methoxy]-2-pyridyl]sulfonyl]-2-(2,2,4-trimethylpyrrolidin-1-yl)pyridine-3-carboxamide]: under setting [2], the EC30 is below 3 µM.

As to `CC(C)Cc1ccc(-c2cnc(N3CC(C)CC3(C)C)c(C(=O)NS(=O)(=O)c3cccc(N)n3)c2)cc1` (stereo not drawn) [Compound 2395, N-[(6-amino-2-pyridyl)sulfonyl]-5-(4-isobutylphenyl)-2-(2,2,4-trimethylpyrrolidin-1-yl)pyridine-3-carboxamide], the EC30 under setting [2] was below 3 µM.

Regarding `Cc1nc2cc(Nc3cccc(S(=O)(=O)NC(=O)c4cccnc4N4CC(C)CC4(C)C)n3)ccc2s1` (stereo not drawn) [Compound 2198, N—[[6-[(2-methyl-1,3-benzothiazol-5-yl)amino]-2-pyridyl]sulfonyl]-2-(2,2,4-trimethylpyrrolidin-1-yl)pyridine-3-carboxamide], under setting [2], the concentration for an effect of 30% (EC30) is below 3 µM.

For `Cc1cc(C)c(Oc2nc(C(C)(C)C)ccc2C(=O)NS(=O)(=O)c2cn(C)nc2N)c(C)c1` [Compound 41, N-(3-amino-1-methyl-pyrazol-4-yl)sulfonyl-6-tert-butyl-2-(2,4,6-trimethylphenoxy)pyridine-3-carboxamide], under setting [1], the EC30 result is given as “+++ (“+++” means <3 uM)”.

In the case of `Cc1cc(C)c(Oc2nc(-c3cccc(OCC(C)C)c3)ccc2C(=O)NS(=O)(=O)c2ccc[nH]c2=O)c(C)c1` [Compound 125, 6-(3-isobutoxyphenyl)-N-[(2-oxo-1H-pyridin-3-yl)sulfonyl]-2-(2,4,6-trimethylphenoxy)pyridine-3-carboxamide], the EC30 result under setting [1] was “++ (“++” means between 3 uM and 10 uM)”.

Regarding `C[C@@H]1CN(c2nc(C3CCCCO3)ccc2C(=O)NS(=O)(=O)c2cccnc2N)C(C)(C)C1` (single isomer, unassigned) [Compound 2672], the EC30 under setting [2] is below 3 µM.

As for `CC(C)Oc1cccc(-c2ccc(C(=O)NS(=O)(=O)c3cccnc3N)c(N3C[C@@H](C)CC3(C)C)n2)c1` [Compound 2515, N-[(2-amino-3-pyridyl)sulfonyl]-6-(3-isopropoxyphenyl)-2-[(4S)-2,2,4-trimethylpyrrolidin-1-yl]pyridine-3-carboxamide], the EC30 under setting [2] was below 3 µM.

Consider `CC(C)(C)c1ccc(C(=O)NS(=O)(=O)c2cccc(N)c2)c(-c2ccc(F)cc2)n1` [Compound 46, N-(3-aminophenyl)sulfonyl-6-tert-butyl-2-(4-fluorophenyl)pyridine-3-carboxamide], for which, under setting [1], the EC30 entry is “++ (“++” means between 3 uM and 10 uM)”.

Turning to `CC(C)COc1cc(F)cc(-c2ccc(C(=O)NS(=O)(=O)c3cccc(N)n3)c(N3CC[C@H](C)C3)n2)c1` [Compound 678, N-[(6-amino-2-pyridyl)sulfonyl]-6-(3-fluoro-5-isobutoxy-phenyl)-2-[(3S)-3-methylpyrrolidin-1-yl]pyridine-3-carboxamide], under setting [1], the EC30 result is recorded as “+++ (“+++” means <3 uM)”.

Consider `C[C@@H]1CN(c2nc(-c3ccc(F)c(F)c3)ccc2C(=O)NS(=O)(=O)c2ccc[nH]c2=O)C(C)(C)C1` [Compound 2284, 6-(3,4-difluorophenyl)-N-[(2-oxo-1H-pyridin-3-yl)sulfonyl]-2-[(4S)-2,2,4-trimethylpyrrolidin-1-yl]pyridine-3-carboxamide], for which, under setting [2], the EC30 is below 3 µM.

As for `CCOc1ncccc1-c1ccc(C(=O)NS(=O)(=O)c2cccc(N)n2)c(Oc2c(C)cc(C)cc2C)n1` [Compound 718, N-[(6-amino-2-pyridyl)sulfonyl]-6-(2-ethoxy-3-pyridyl)-2-(2,4,6-trimethylphenoxy)pyridine-3-carboxamide], under setting [1], the 30% effect concentration (EC30) result is “+++ (“+++” means <3 uM)”.

On to `Cc1cccc(Oc2cccc(S(=O)(=O)NC(=O)c3cccnc3N3CC(C)CC3(C)C)n2)n1` (stereo not drawn) [Compound 2731], for which the EC30 under setting [2] fell in the range of 3 to 10 µM.

`COc1cccc2c1cc(C(=O)NS(=O)(=O)c1cccc(N)c1)n2Cc1c(C)cc(C)cc1C` [Compound 120, N-(3-aminophenyl)sulfonyl-4-methoxy-1-[(2,4,6-trimethylphenyl)methyl]indole-2-carboxamide]: the EC30 result under setting [1] was “+++ (“+++” means <3 uM)”.

For the compound `CC(C)Oc1ccc(-c2ccc(C(=O)NS(=O)(=O)c3cccc(N)n3)c(N3C[C@@H]4CC[C@H]3C4)n2)cn1` [Compound 476, N-[(6-amino-2-pyridyl)sulfonyl]-2-[(1R,4S)-3-azabicyclo[2.2.1]heptan-3-yl]-6-(6-isopropoxy-3-pyridyl)pyridine-3-carboxamide], the EC30 result under setting [1] is “++ (“++” means between 3 uM and 10 uM)”.

`COc1cc(F)cc(-c2cnc(N3CC(C)CC3(C)C)c(C(=O)NS(=O)(=O)c3cccc(N)n3)c2)c1` (stereo not drawn) [Compound 2431, N-[(6-amino-2-pyridyl)sulfonyl]-5-(3-fluoro-5-methoxy-phenyl)-2-(2,2,4-trimethylpyrrolidin-1-yl)pyridine-3-carboxamide]: under setting [2], the concentration for an effect of 30% (EC30) was below 3 µM.

Take `COCc1ccc(-c2ccc(C(=O)NS(=O)(=O)c3cccc(N)n3)c(Oc3c(C)cc(C)cc3C)n2)cc1` [Compound 66, N-[(6-amino-2-pyridyl)sulfonyl]-6-[4-(methoxymethyl)phenyl]-2-(2,4,6-trimethylphenoxy)pyridine-3-carboxamide]: under setting [1], the concentration for an effect of 30% (EC30) entry was “+++ (“+++” means <3 uM)”.

The term EC30 denotes the point of the concentration-response curve where the effect stands at 30%.
